# Data: patent US20080108681A1 (Access Business Group International LLC, priority 2006, published 2008)
# Tests used:
# [1] = system: pro-collagen synthesis in Hs27/HEK001 cells; conditions: generally known value for the control substance; cited from earlier work
# [2] = system: pro-collagen synthesis in Hs27/HEK001 cells; assay: Pro-Collagen Synthesis In Vitro Assay (Procollagen ELISA); format: cell-based, human
# Protocol: Hs27/HEK001 cells are plated at 10,000/40,000 cells per well of 96-well plate. Hs27 cells are normal human fibroblasts derived from a foreskin source. […] cells are a human epidermal cell line that originally was derived from human scalp keratinocytes. […] Hs27/HEK001 cells are allowed to attach overnight. Following overnight incubation, media is removed from the wells and replaced with 100 μl fresh media.
# After overnight incubation, the test samples are added to wells in triplicate to final concentrations of 1, 10, and 100 μg/ml. The cells with test sample added are incubated overnight and supernatants are collected for analysis using a Procollagen ELISA kit from Takara Bio, Inc. (Japan). The EC50 concentration for each test sample is monitored and recorded to evaluate variability over time.
# Controls for this assay include administration of 0.1, 1, and 10 μg/ml ascorbic acid and all-trans-retinoic acid to H27/HEK cells. Untreated cells also are used as a negative control. It generally is known that ascorbic acid increases pro-collagen synthesis by approximately 15-20% compared to untreated control.
# [3] = system: glycosaminoglycan production; assay: Synthesis of glycosaminoglycans after allantoin administration; format: cell-based
# [4] = system: elastin; assay: Elastin synthesis after allantoin administration; format: cell-based
SMILES,increase in pro-collagen synthesis compared to untreated control [1],"Pro-collagen synthesis, percent of untreated control ([2]; allantoin at 100 μg/ml, average of triplicate wells)",average increase in pro-collagen synthesis ([2]; at 100 μg/ml),"dose dependence of pro-collagen synthesis ([2]; final concentrations of 1, 10, and 100 μg/ml)","Glycosaminoglycan synthesis, percent of untreated control ([3]; allantoin at 100 μg/ml)",average increase in glycosaminoglycan production ([3]; at 100 μg/ml),"Elastin synthesis, percent of untreated control ([4]; allantoin at 100 μg/ml)",average increase in elastin ([4]; at 100 μg/ml)
O=C1O[C@H]([C@@H](O)CO)C(O)=C1O [ascorbic acid],15-20%,,,,,,,
"NC(=O)NC1NC(=O)NC1=O (centres unmarked) [Allantoin, 2,5-dioxy-4-imidazolidinyl urea]",,124.1%,24.1%,dose-dependent increase in pro-collagen synthesis,111.2%,11.2%,106.2%,6.2%
